Assay results reported in patent publication US12384770B2, “Heterocyclic compound” (Takeda Pharmaceutical Company Limited, priority 2019, dated 2025).

Biological target: T1, HDAC6 enzyme (Homo sapiens, UniProt Q9UBN7)
T1 construct: HDAC6 enzyme prepared by transducing full length HDAC6 gene into Sf-9 insect cells; GST; purchased SignalChem; host or cells: Sf-9 insect cells
T1 sequence (Q9UBN7 1-1215): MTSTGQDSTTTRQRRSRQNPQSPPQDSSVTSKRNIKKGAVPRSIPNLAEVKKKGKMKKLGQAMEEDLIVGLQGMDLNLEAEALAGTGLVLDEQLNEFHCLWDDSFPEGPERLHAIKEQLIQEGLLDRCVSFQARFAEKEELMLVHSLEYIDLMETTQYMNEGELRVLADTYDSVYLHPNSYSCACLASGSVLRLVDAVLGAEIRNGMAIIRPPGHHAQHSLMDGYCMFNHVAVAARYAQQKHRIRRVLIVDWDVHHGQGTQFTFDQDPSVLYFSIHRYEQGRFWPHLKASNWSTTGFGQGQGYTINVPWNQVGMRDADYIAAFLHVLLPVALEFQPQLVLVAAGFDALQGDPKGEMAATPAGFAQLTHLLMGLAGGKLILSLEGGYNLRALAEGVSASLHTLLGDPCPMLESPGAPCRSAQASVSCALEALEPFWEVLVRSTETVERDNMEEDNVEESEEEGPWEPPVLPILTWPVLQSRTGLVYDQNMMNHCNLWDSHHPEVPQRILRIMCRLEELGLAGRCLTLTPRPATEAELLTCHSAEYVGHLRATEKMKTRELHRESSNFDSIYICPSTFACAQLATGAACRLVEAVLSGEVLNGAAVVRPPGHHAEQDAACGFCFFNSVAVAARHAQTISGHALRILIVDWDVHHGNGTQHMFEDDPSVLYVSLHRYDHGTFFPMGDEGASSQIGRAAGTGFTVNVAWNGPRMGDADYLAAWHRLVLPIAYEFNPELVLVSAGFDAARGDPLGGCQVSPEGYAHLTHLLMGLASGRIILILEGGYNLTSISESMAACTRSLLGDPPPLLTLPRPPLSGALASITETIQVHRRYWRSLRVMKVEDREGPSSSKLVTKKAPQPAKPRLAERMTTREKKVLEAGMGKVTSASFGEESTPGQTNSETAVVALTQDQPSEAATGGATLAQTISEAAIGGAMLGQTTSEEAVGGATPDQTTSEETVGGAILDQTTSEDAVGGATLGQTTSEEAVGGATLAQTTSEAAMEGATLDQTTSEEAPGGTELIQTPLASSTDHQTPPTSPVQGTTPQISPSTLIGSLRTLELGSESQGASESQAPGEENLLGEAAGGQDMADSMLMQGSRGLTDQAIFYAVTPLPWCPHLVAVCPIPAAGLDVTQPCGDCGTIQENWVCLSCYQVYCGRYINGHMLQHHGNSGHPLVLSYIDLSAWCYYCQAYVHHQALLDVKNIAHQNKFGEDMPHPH
Assay: HDAC6 enzyme inhibitory assay (HDAC-Glo I/II Assay kit)
Assay type: biochemical
Conditions: wells without enzyme = 100% inhibition; for inhibition at 10 µM: read-out: HDAC6 inhibitory rate (%) (10 μM)
Outline: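 Full-length GST-purified HDAC6 from Sf-9 cells preincubated with compound 60 min at room temperature in Tris-HCl pH 7.5 buffer with MgCl2, KCl, NaCl, glutathione, Tween-20. Substrate-developer reaction 20 min, luminescence read; no-enzyme wells set as 100% inhibition.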

SMILES: O=C1c2cc(-c3nnc(C(F)F)o3)ccc2CN1[C@H](c1cnccn1)[C@@H](O)c1cccc(Cl)c1 (single isomer, unassigned) [Example 92, 2-[(1R*,2S*)-2-(3-chlorophenyl)-2-hydroxy-1-(pyrazin-2-yl)ethyl]-6-[5-(difluoromethyl)-1,3,4-oxadiazol-2-yl]-2,3-dihydro-1H-isoindol-1-one]
- HDAC6 inhibitory rate (%) (10 μM): 100%

SMILES: O=C1c2cc(-c3nnc(C(F)F)o3)ccc2CN1[C@H](c1ncccn1)[C@@H](O)c1ccc(F)c(F)c1 (single isomer, unassigned) [Example 94, 6-[5-(difluoromethyl)-1,3,4-oxadiazol-2-yl]-2-[(1R*,2S*)-2-(3,4-difluorophenyl)-2-hydroxy-1-(pyrimidin-2-yl)ethyl]-2,3-dihydro-1H-isoindol-1-one]
- inhibition at 10 µM: 100%

SMILES: O=C1c2cc(-c3nnc(C(F)F)o3)ccc2CN1[C@H](c1ncccn1)[C@@H](O)c1ccc(F)c(F)c1 (single isomer, unassigned) [Example 95, 6-[5-(difluoromethyl)-1,3,4-oxadiazol-2-yl]-2-[(1R*,2S*)-2-(3,4-difluorophenyl)-2-hydroxy-1-(pyrimidin-2-yl)ethyl]-2,3-dihydro-1H-isoindol-1-one]
- HDAC6 inhibitory rate (%) (10 μM) (10 µM): 99%

SMILES: O=C1c2cc(-c3nnc(C(F)F)o3)ccc2CN1[C@H](c1cnccn1)[C@@H](O)c1ccc(Cl)cc1 (single isomer, unassigned) [Example 96, 2-[(1R*,2S*)-2-(4-chlorophenyl)-2-hydroxy-1-(pyrazin-2-yl)ethyl]-6-[5-(difluoromethyl)-1,3,4-oxadiazol-2-yl]-2,3-dihydro-1H-isoindol-1-one]
- inhibition at 10 µM: 100%

SMILES: O=C1c2cc(-c3nnc(C(F)F)o3)ccc2CN1[C@H](c1cnccn1)[C@@H](O)c1ccc(Cl)cc1 (single isomer, unassigned) [Example 97, 2-[(1R*,2S*)-2-(4-chlorophenyl)-2-hydroxy-1-(pyrazin-2-yl)ethyl]-6-[5-(difluoromethyl)-1,3,4-oxadiazol-2-yl]-2,3-dihydro-1H-isoindol-1-one]
- HDAC6 inhibitory rate (%) (10 μM) (10 µM): 99%

SMILES: O=C1c2cc(-c3nnc(C(F)F)o3)ccc2CN1[C@H](c1cnccn1)[C@@H](O)c1ccc(F)cc1 (single isomer, unassigned) [Example 98, 6-[5-(difluoromethyl)-1,3,4-oxadiazol-2-yl]-2-[(1R*,2S*)-2-(4-fluorophenyl)-2-hydroxy-1-(pyrazin-2-yl)ethyl]-2,3-dihydro-1H-isoindol-1-one]
- inhibition at 10 µM: 100%

SMILES: O=C1c2cc(-c3nnc(C(F)F)o3)ccc2CN1[C@H](c1cnccn1)[C@@H](O)c1ccc(F)cc1 (single isomer, unassigned) [Example 99, 6-[5-(difluoromethyl)-1,3,4-oxadiazol-2-yl]-2-[(1R*,2S*)-2-(4-fluorophenyl)-2-hydroxy-1-(pyrazin-2-yl)ethyl]-2,3-dihydro-1H-isoindol-1-one]
- HDAC6 inhibitory rate (%) (10 μM): 100%

SMILES: O=C1c2cc(-c3nnc(C(F)F)o3)ccc2CN1[C@H](c1cnccn1)[C@@H](O)c1cccc(F)c1 (single isomer, unassigned) [Example 100, 6-[5-(difluoromethyl)-1,3,4-oxadiazol-2-yl]-2-[(1R*,2S*)-2-(3-fluorophenyl)-2-hydroxy-1-(pyrazin-2-yl)ethyl]-2,3-dihydro-1H-isoindol-1-one]
- inhibition at 10 µM: 100%

SMILES: O=C1c2cc(-c3nnc(C(F)F)o3)ccc2CN1[C@H](c1cnccn1)[C@@H](O)c1cccc(F)c1 (single isomer, unassigned) [Example 101, 6-[5-(difluoromethyl)-1,3,4-oxadiazol-2-yl]-2-[(1R*,2S*)-2-(3-fluorophenyl)-2-hydroxy-1-(pyrazin-2-yl)ethyl]-2,3-dihydro-1H-isoindol-1-one]
- HDAC6 inhibitory rate (%) (10 μM): 100%

SMILES: O=C1c2cc(-c3nnc(C(F)F)o3)ccc2CN1[C@H](c1ccccn1)[C@@H](O)c1ccccc1 (single isomer, unassigned) [Example 102, 6-[5-(difluoromethyl)-1,3,4-oxadiazol-2-yl]-2-[(1R*,2S*)-2-hydroxy-2-phenyl-1-(pyridin-2-yl)ethyl]-2,3-dihydro-1H-isoindol-1-one]
- inhibition at 10 µM: 100%

SMILES: O=C1c2cc(-c3nnc(C(F)F)o3)ccc2CN1[C@H](c1ccccn1)[C@@H](O)c1ccccc1 (single isomer, unassigned) [Example 103, 6-[5-(difluoromethyl)-1,3,4-oxadiazol-2-yl]-2-[(1R*,2S*)-2-hydroxy-2-phenyl-1-(pyridin-2-yl)ethyl]-2,3-dihydro-1H-isoindol-1-one]
- HDAC6 inhibitory rate (%) (10 μM): 100%

SMILES: O=C1c2cc(-c3nnc(C(F)F)o3)ccc2CN1[C@H](c1ccccn1)[C@@H](O)c1ccc(C(F)(F)F)cn1 (single isomer, unassigned) [Example 104, 6-[5-(difluoromethyl)-1,3,4-oxadiazol-2-yl]-2-{(1R*,2R*)-2-hydroxy-1-(pyridin-2-yl)-2-[5-(trifluoromethyl)pyridin-2-yl]ethyl}-2,3-dihydro-1H-isoindol-1-one]
- inhibition at 10 µM: 100%

SMILES: O=C1c2cc(-c3nnc(C(F)F)o3)ccc2CN1[C@H](c1ccccn1)[C@@H](O)c1ccc(C(F)(F)F)cn1 (single isomer, unassigned) [Example 105, 6-[5-(difluoromethyl)-1,3,4-oxadiazol-2-yl]-2-{(1R*,2R*)-2-hydroxy-1-(pyridin-2-yl)-2-[5-(trifluoromethyl)pyridin-2-yl]ethyl}-2,3-dihydro-1H-isoindol-1-one]
- HDAC6 inhibitory rate (%) (10 μM) (10 µM): 99%

SMILES: O=C1c2cc(-c3nnc(C(F)F)o3)ccc2CN1[C@H](c1cccnn1)[C@@H](O)c1ccc(F)c(F)c1 (single isomer, unassigned) [Example 108, 6-[5-(difluoromethyl)-1,3,4-oxadiazol-2-yl]-2-[(1R*,2S*)-2-(3,4-difluorophenyl)-2-hydroxy-1-(pyridazin-3-yl)ethyl]-2,3-dihydro-1H-isoindol-1-one]
- inhibition at 10 µM: 100%

SMILES: O=C1c2cc(-c3nnc(C(F)F)o3)ccc2CN1[C@H](c1cccnn1)[C@@H](O)c1ccc(F)c(F)c1 (single isomer, unassigned) [Example 109, 6-[5-(difluoromethyl)-1,3,4-oxadiazol-2-yl]-2-[(1R*,2S*)-2-(3,4-difluorophenyl)-2-hydroxy-1-(pyridazin-3-yl)ethyl]-2,3-dihydro-1H-isoindol-1-one]
- HDAC6 inhibitory rate (%) (10 μM): 100%

SMILES: O=C1c2cc(-c3nnc(C(F)F)o3)ccc2CN1[C@H](c1cccnn1)[C@@H](O)c1ccc(Cl)cc1 (single isomer, unassigned) [Example 111, 2-[(1R*,2S*)-2-(4-chlorophenyl)-2-hydroxy-1-(pyridazin-3-yl)ethyl]-6-[5-(difluoromethyl)-1,3,4-oxadiazol-2-yl]-2,3-dihydro-1H-isoindol-1-one]
- inhibition at 10 µM: 99%

SMILES: O=C1c2cc(-c3nnc(C(F)F)o3)ccc2CN1[C@H](c1ccccn1)[C@@H](O)c1ccc(Cl)cn1 (single isomer, unassigned) [Example 112, 2-[(1R*,2R*)-2-(5-chloropyridin-2-yl)-2-hydroxy-1-(pyridin-2-yl)ethyl]-6-[5-(difluoromethyl)-1,3,4-oxadiazol-2-yl]-2,3-dihydro-1H-isoindol-1-one]
- inhibition at 10 µM: 99%
